According to ChEMBL document CHEMBL5257089, “Gamabufotalin Induces Apoptosis and Cytoprotective Autophagy through the mTOR Signaling Pathway in Hepatocellular Carcinoma” (J Nat Prod, 2023):
Calls of active or inactive are those of the source. No cut-off for these calls is given here.

Columns and labels:
Hep 3B2 [1] = assay: Induction of autophagic flux in human Hep3B cells assessed as rescue of LC3-II accumulation at 10 uM incubated for 48 hrs in presence of gamabufotalin by Western blot analysis; assay type: functional, cell-based
Hep 3B2 [2] = assay: Induction of autophagic flux in human Hep3B cells assessed as rescue of LC3-I accumulation at 10 uM incubated for 48 hrs in presence of gamabufotalin by Western blot analysis; assay type: functional, cell-based
Hep 3B2 [3] = assay: Induction of apoptosis in human Hep3B cells assessed as early apoptotic cells at 10 nM incubated for 48 hrs by Annexin V-FITC/PI staining based flow cytometry method (reference value: 1.3%); assay type: functional
Hep 3B2 [4] = assay: Induction of apoptosis in human Hep3B cells assessed as late apoptotic cells at 10 nM incubated for 48 hrs by Annexin V-FITC/PI staining based flow cytometry method (reference value: 3.5%); assay type: functional
Hep 3B2 [5] = assay: Induction of apoptosis in human Hep3B cells assessed as late apoptotic cells at 10 nM incubated for 48 hrs in presence of gamabufotalin by Annexin V-FITC/PI staining based flow cytometry method (reference value: 3.5%); assay type: functional
Hep 3B2 [6] = assay: Induction of apoptosis in human Hep3B cells assessed as necrotic cells at 10 nM incubated for 48 hrs in presence of gamabufotalin by Annexin V-FITC/PI staining based flow cytometry method (reference value: 1.2%); assay type: functional
Huh-7 [7] = assay: Induction of apoptosis in human Huh-7 cells assessed as necrotic cells at 10 nM incubated for 48 hrs by Annexin V-FITC/PI staining based flow cytometry method (reference value: 1.0%); assay type: functional
Huh-7 [8] = assay: Induction of apoptosis in human Huh-7 cells assessed as early apoptotic cells at 10 nM incubated for 48 hrs in presence of gamabufotalin by Annexin V-FITC/PI staining based flow cytometry method (reference value: 2.8%); assay type: functional
Hep 3B2 [9] = assay: Induction of apoptosis in human Hep3B cells assessed as increase in caspase-3 level at 10 nM incubated for 48 hrs in presence of gamabufotalin by immunoblot analysis; assay type: functional, cell-based
Hep 3B2 [10] = assay: Inhibition of colony formation in human Hep3B cells at upto 25 uM incubated for 48 hrs by crystal violet staining based analysis; assay type: functional, cell-based
Huh-7 [11] = assay: Inhibition of colony formation in human Huh-7 cells at upto 25 uM incubated for 48 hrs by crystal violet staining based analysis; assay type: functional, cell-based
Hep 3B2 [12] = assay: Induction of apoptosis in human Hep3B cells assessed as necrotic cells at 20 nM incubated for 48 hrs by Annexin V-FITC/PI staining based flow cytometry method (reference value: 0.2%); assay type: functional
Huh-7 [13] = assay: Induction of apoptosis in human Huh-7 cells assessed as early apoptotic cells at 15 nM incubated for 48 hrs by Annexin V-FITC/PI staining based flow cytometry method (reference value: 1.7%); assay type: functional
Huh-7 [14] = assay: Induction of apoptosis in human Huh-7 cells assessed as early apoptotic cells at 25 nM incubated for 48 hrs by Annexin V-FITC/PI staining based flow cytometry method (reference value: 1.7%); assay type: functional
Hep 3B2 [15] = assay: Induction of apoptosis in human Hep3B cells assessed as fragmented nuclei at […] incubated for 48 hrs by Hoechst33258 staining based fluorescence microscopy; assay type: functional, cell-based
Hep 3B2 [16] = assay: Induction of apoptosis in human Hep3B cells assessed as increase in cleaved caspase-3 expression at upto 25 nM incubated for 48 hrs by Western blot analysis; assay type: functional, cell-based
Hep 3B2 [17] = assay: Induction of apoptosis in human Hep3B cells assessed as increase in caspase-3 expression at upto 25 nM incubated for 48 hrs by Western blot analysis; assay type: functional, cell-based
Huh-7 [18] = assay: Induction of apoptosis in human Huh-7 cells assessed as increase in caspase-3 expression at upto 25 nM incubated for 48 hrs by Western blot analysis; assay type: functional, cell-based
Huh-7 [19] = assay: Induction of apoptosis in human Huh-7 cells assessed as increase in Bcl-2 expression at upto 25 nM incubated for 48 hrs by Western blot analysis; assay type: functional, cell-based
Huh-7 [20] = assay: Induction of apoptosis in human Huh-7 cells assessed as late apoptotic cells at 25 nM measured after 48 hrs in presence of z-VAD-FMK by annexin V-FITC/Propidium iodide staining based flow cytometric analysis (reference value: 6.1%); assay type: functional
Hep 3B2 [21] = assay: Induction of apoptosis in human Hep3B cells assessed as increase in cleaved PARP level at 25 nM incubated for 48 hrs in presence of chloroquine by immunoblot analysis; assay type: functional, cell-based
Hep 3B2 [22] = assay: Induction of apoptosis in human Hep3B cells assessed as reduction in Bcl-2 level at 25 nM incubated for 48 hrs in presence of chloroquine by immunoblot analysis; assay type: functional, cell-based
Huh-7 [23] = assay: Induction of apoptosis in human Huh-7 cells assessed as increase in cleaved caspase-3 level at 25 nM incubated for 48 hrs in presence of chloroquine by immunoblot analysis; assay type: functional, cell-based
Hep 3B2 [24] = assay: Induction of apoptosis in human Hep3B cells assessed as late apoptotic cells at 25 nM incubated for 48 hrs in presence of 4,6-dimorpholino-N-(4-nitrophenyl)-1,3,5-triazin-2-amine by Annexin V-FITC/PI staining based flow cytometry method (reference value: 2.2%); assay type: functional
Huh-7 [25] = assay: Induction of apoptosis in human Huh-7 cells assessed as necrotic cells at 25 nM incubated for 48 hrs by Annexin V-FITC/PI staining based flow cytometry method (reference value: 1.9%); assay type: functional
Huh-7 [26] = assay: Induction of apoptosis in human Huh-7 cells assessed as late apoptotic cells at 25 nM incubated for 48 hrs in presence of 4,6-dimorpholino-N-(4-nitrophenyl)-1,3,5-triazin-2-amine by Annexin V-FITC/PI staining based flow cytometry method (reference value: 3.8%); assay type: functional
Hep 3B2 [27] = assay: Induction of autophagy in human Hep3B cells assessed as rescue of mTOR phosphorylation level at upto 25 nM incubated for 48 hrs in presence of chloroquine by immunoblot method; assay type: functional, cell-based
Hep 3B2 [28] = assay: Induction of autophagy in human Hep3B cells assessed as restoration of mTOR phosphorylation expression at 25 uM incubated for 48 hrs in presence of 4,6-dimorpholino-N-(4-nitrophenyl)-1,3,5-triazin-2-amine by immunoblot analysis; assay type: functional, cell-based
Huh-7 [29] = assay: Induction of autophagic flux in human Huh-7 cells harbouring mCherry-egfp-LC3 assessed as reduction in number of red puncta ratio at 25 nM incubated for 15 mins in presence of chloroquine by laser scanning confocal microscopic analysis; assay type: functional, cell-based
Hep 3B2 [30] = assay: Antitumor activity against human Hep3B cells xenografted in nude mouse model assessed as upregulation of LC3I expression at 5 mg/kg,ip administered every second day for 3 weeks by Western blot analysis; assay type: functional, organism-based
Hep 3B2 [31] = assay: Antitumor activity against human Hep3B cells xenografted in nude mouse model assessed as downregulation of ULK1 phosphorylation expression expression at 5 mg/kg,ip administered every second day for 3 weeks by Western blot analysis; assay type: functional, organism-based
[32] = Toxicity in mouse assessed as effect on kidney at 5 mg/kg,ip administered every second day for 3 weeks by H and E staining based microscopic method; assay type: organism-based; settings: in vivo, 504 h
[33] = Toxicity in mouse assessed as effect on spleen at 5 mg/kg,ip administered every second day for 3 weeks by H and E staining based microscopic method; assay type: organism-based; settings: in vivo, 504 h
[34] = Toxicity in mouse assessed as effect on serum AST level at 5 mg/kg,ip administered every second day for 3 weeks by H and E staining based microscopic method; assay type: organism-based; settings: in vivo, 504 h

Structure (SMILES): CCN(CC)CCCC(C)Nc1ccnc2cc(Cl)ccc12 (centres undefined) [CHLOROQUINE]
- Activity (Hep 3B2 [1]): Active
- Activity (Hep 3B2 [2]): Active
- Activity (Hep 3B2 [3]): 1.5%
- Activity (Hep 3B2 [4]): 4.4%
- Activity (Hep 3B2 [5]): 17.4%
- Activity (Hep 3B2 [6]): 0.8%
- Activity (Huh-7 [7]): 1.9%
- Activity (Huh-7 [8]): 12.1%
- Activity (Hep 3B2 [9]): Active

Structure (SMILES): C[C@]12CC[C@H](O)C[C@H]1CC[C@@H]1[C@@H]2[C@H](O)C[C@]2(C)[C@@H](c3ccc(=O)oc3)CC[C@]12O [GAMABUFOTALIN]
- inhibition (Hep 3B2 [10]): Active
- inhibition (Huh-7 [11]): Active
- Activity (Hep 3B2 [12]): 0.3%
- Activity (Huh-7 [13]): 4%
- Activity (Huh-7 [14]): 5.6%
- Activity (Hep 3B2 [15]): Active
- Activity (Hep 3B2 [16]): Active
- Activity (Hep 3B2 [17]): Active
- Activity (Huh-7 [18]): Active
- Activity (Huh-7 [19]): Active
- Activity (Huh-7 [20]): 7.4%
- Activity (Hep 3B2 [21]): Active
- Activity (Hep 3B2 [22]): Active
- Activity (Huh-7 [23]): Active
- Activity (Hep 3B2 [24]): 20.2%
- Activity (Huh-7 [25]): 2.1%
- Activity (Huh-7 [26]): 6.6%
- Activity (Hep 3B2 [27]): Active
- Activity (Hep 3B2 [28]): Active
- Activity (Huh-7 [29]): Active
- Activity (Hep 3B2 [30]): Active
- Activity (Hep 3B2 [31]): Active
- Activity [32]: Non-Toxic
- Activity [33]: Non-Toxic
- Activity [34]: Non-Toxic
